PMC6268972, “Antiproliferative, Antimicrobial and Apoptosis Inducing Effects of Compounds Isolated from Inula viscosa” (Molecules, 2012)
Converted amounts (≈) assume the structure as drawn. Read-outs that look alike come from different tables or passages of the source.

What was measured:
[1] = system: MCF-7 cells; assay: MTT antiproliferative activity assay, MCF-7; type: cell-based, human; conditions: for IC50: Homo sapiens, read-out: IC50 MCF-7
Description: (§1) Hep-2 (larynx carcinoma, ATCC: CCL-23), MCF-7 (breast epithelial adenocarcinoma, ATCC: HTB-22), and Vero (African green monkey kidney, ATCC: CCL-81) cell lines were kindly provided by Dr. Mona Hassuneh (Department of Biological Sciences, University of Jordan). Cells were grown in Minimum Essential Medium Eagle (Gibco, Paisley UK) supplemented with 10% heat inactivated fetal bovine serum (Gibco, Paisley UK), 29 μg/mL L-glutamine, and 40 μg/mL gentamicin. Cells were incubated in a humidified atmosphere of 5% CO2 at 37 °C.
(§2) The antiproliferative activity of Inula viscosa compounds was measured using the MTT (3-(4,5-dimethylthiazol-2-yl)-2,5-diphenyltetrazolium bromide) assay (Promega, Madison, WI, USA). The assay detects the reduction of MTT by mitochondrial dehydrogenase to blue formazan product, which reflects the normal function of mitochondria and cell viability. Exponentially growing cells were washed and seeded at 17,000 cells/well for Hep-2 cell line and 11,000 cells/ well for MCF-7 cell line (in 200 μL of growth medium) in 96 well microplates (Nunc, Roskilde, Denmark). After 24 h incubation, a partial monolayer was formed then the media was removed and 200 μL of the medium containing the compound (initially dissolved in DMSO) were added and re-incubated for 48 h. Then 100 μL of the medium were aspirated and 15 μL of the MTT solution were added to the remaining medium (100 μL) in each well. After 4 h contact with the MTT solution, blue crystals were formed. One hundred μL of the stop solution were added and incubated further for 1 h.
(§3) Reduced MTT was assayed at 550 nm using a microplate reader (Biotek, Winooski, VT, USA). Control groups received the same amount of DMSO (0.1%).Untreated cells were used as a negative control while, cells treated with vincristine sulfate were used as a positive control. Eight concentrations (150, 100, 50, 20, 10, 5, 2, and 1 μg/mL) were prepared from each compound and tested against the three cell lines. IC50 values were calculated as the concentrations that show 50% inhibition of proliferation on any tested cell line. Stock solutions of the compounds were dissolved in (DMSO) then diluted with the medium and sterilized using 0.2 μm membrane filters. The toxicity of DMSO was determined and the final dilution of compounds used for treating the cells contained not more than 0.1% (non toxic concentration) DMSO. IC50 values were reported as the average of three replicates. The antiproliferative effect of the tested compounds was determined by comparing the optical density of the treated cells against the optical density of the control (cells treated with media containing 0.1% DMSO).

[2] = system: Methicillin resistant Staphylococcus aureus (MRSA); assay: Microtiter plate dilution MIC, MRSA; type: cell-based; conditions: 24 h; for MIC: Staphylococcus aureus, MRSA, read-out: Minimum inhibitory concentration (MIC) MRSA
Description: (§4) The microbial strains used in this study were Escherichia coli (ATCC 10798), Salmonella typhimurium (ATCC14028), Methicillin resistant Staphylococcus aureus (MRSA, Clinical isolate), Bacillus cereus (Toxigenic strain TS), and Candida albicans (ATCC 90028). Bacterial strains were stocked onto nutrient agar slant at 4 °C, and Candida albicans was stocked onto malt agar slant at 4 °C.
(§5) The microtiter plate dilution method was used to determine the MIC (minimum inhibitory concentration) of compounds under study. Sterile 96-well microplates (Nunc) were used for the assay. Stock compounds were dissolved in DMSO so that the final concentrations in micro wells were less than 1% DMSO and solvent controls were run at these concentrations. Positive controls of penicillin G and tetracycline (Oxoid, Hampshire, UK) were prepared at the following concentrations 2, 4, 8, 16, 31, 62.5, 125, and 250 μg/mL. 1% DMSO was used as a solvent control. Compounds were diluted to twice the desired initial test concentration (250 µg/mL) with Muller Hinton broth (MHB) (Oxoid). All wells, except the first were filled with MHB (50 μL). Compounds (100 μL) were added to the first well and serial two-fold dilutions were made down to the desired minimum concentration (2 μg/mL). An over-night culture of bacteria suspended in MHB was adjusted to turbidity equal to 0.5 McFarland standard. The plates were inoculated with bacterial suspension (50 μL/well) and incubated at 37 °C for 24 h. Then the turbidity was measured using micro-plate reader (Biotek) at 620 nm wavelength. The same procedure was used to determine the antifungal activity of compounds against Candida albicans. The medium used was malt extract broth. The yeast cells were suspended in 0.85% saline, with an optical density equivalent to 0.5 McFarland standard, and diluted 1:100 in malt extract broth to obtain the working concentration. After 24 h incubation with each compound, the turbidity was measured at 530 nm wavelength using a spectrophotometer (Biotek). Percentage inhibition for tested microorganisms was calculated using the following formula:
(§6) MIC was determined as the lowest concentration of the compound that causes complete inhibition (100%) of each microorganism.

[3] = system: Vero cells; assay: MTT antiproliferative activity assay, Vero; type: cell-based, African green monkey; conditions: for IC50: Chlorocebus sabaeus, Vero, read-out: IC50 Vero
Description: as §1, §2, §3

[4] = system: Bacillus cereus; assay: Microtiter plate dilution MIC, B. cereus; type: cell-based; conditions: 24 h; for MIC: Bacillus cereus, read-out: Minimum inhibitory concentration (MIC) B.c
Description: as §4, §5, §6

[5] = system: Candida albicans; assay: Microtiter plate dilution MIC, C. albicans; type: cell-based; conditions: for MIC: Candida albicans, read-out: Minimum inhibitory concentration (MIC) C.a
Description: as §4, §5, §6

[6] = system: Hep-2 cells; assay: MTT antiproliferative activity assay, Hep-2; type: cell-based; conditions: for IC50: Homo sapiens, read-out: IC50 Hep-2
Description: as §1, §2, §3

[7] = system: Escherichia coli; assay: Microtiter plate dilution MIC, E. coli; type: cell-based; conditions: for MIC: Escherichia coli, read-out: Minimum inhibitory concentration (MIC) E.c
Description: as §4, §5, §6

[8] = system: Salmonella typhimurium; assay: Microtiter plate dilution MIC, S. typhimurium; type: cell-based; conditions: for MIC: Salmonella enterica, ATCC 14028 / TYPHIMURIUM, read-out: Minimum inhibitory concentration (MIC) S.t
Description: as §4, §5, §6

[9] = MTT, 48 h treatment, average of three replicates
[10] = clinical isolate, 100% inhibition
[11] = Toxigenic strain TS, 100% inhibition
[12] = ATCC 90028, malt extract broth, 24 h, 100% inhibition
[13] = ATCC 10798, 24 h, 100% inhibition
[14] = ATCC14028, 24 h, 100% inhibition
[15] = MCF7, MTT, 48 h treatment, average of three replicates
[16] = ATCC90028, ATCC 90028, malt extract broth, 24 h, 100% inhibition
[17] = HEp-2, MTT, 48 h treatment, average of three replicates
[18] = ATCC10798, ATCC 10798, 24 h, 100% inhibition

Row | Compound | IC50 MCF-7 [1, 9] | Minimum inhibitory concentration (MIC) MRSA [2, 10] | IC50 Vero [3, 9] | Minimum inhibitory concentration (MIC) B.c [4, 11] | Minimum inhibitory concentration (MIC) C.a [5, 12] | IC50 Hep-2 [6, 9] | Minimum inhibitory concentration (MIC) E.c [7, 13] | Minimum inhibitory concentration (MIC) S.t [8, 14] | other results
1 | 2-Desacetoxyxanthinin | >150 µg/mL | >250 µg/mL | >150 µg/mL | >250 µg/mL | >250 µg/mL | >150 µg/mL | >250 µg/mL | >250 µg/mL | –
2 | C=C(C(=O)O)[C@@H]1CC[C@@]2(C)C[C@@H](O)C[C@@](C)(O)[C@@H]2C1 [2α-Hydroxyilicic acid] | >150 µg/mL | >250 µg/mL | >150 µg/mL | >250 µg/mL | >250 µg/mL | >150 µg/mL | >250 µg/mL | >250 µg/mL | –
3 | COc1cc(O)c2c(c1)O[C@H](c1ccc(O)c(O)c1)[C@@H](OC(C)=O)C2=O [3-O-Acetylpadmatin] | >150 µg/mL | >250 µg/mL | >150 µg/mL | >250 µg/mL | >250 µg/mL | >150 µg/mL | >250 µg/mL | >250 µg/mL | –
4 | C=C1C[C@@H]2OC(=O)[C@@H](C)[C@H]2C[C@@H]2[C@@H]1CC[C@@]2(C)O [11α,13-Dihydroinuviscolide] | >150 µg/mL | >250 µg/mL | >150 µg/mL | >250 µg/mL | >250 µg/mL | >150 µg/mL | >250 µg/mL | >250 µg/mL | –
5 | COc1c(O)cc2oc(-c3ccc(O)cc3)cc(=O)c2c1O [Hispidulin] | – | – | – | – | – | – | – | – | IC50 ([1]; MCF7, 48 h): 10.3 ± 1.85 µg/mL (≈ 34.5 µM); MIC [2]: > 250 µg/mL; IC50 ([3]; 48 h): 105 ± 2.35 µg/mL (≈ 351 µM); MIC [4]: > 250 µg/mL; MIC ([5]; ATCC90028, 24 h): > 250 µg/mL; IC50 ([6]; HEp-2, 48 h): 19.5 ± 1.06 µg/mL (≈ 64.9 µM); MIC ([7]; ATCC10798, 24 h): > 250 µg/mL; MIC ([8]; 24 h): > 250 µg/mL
6 | C=C(C(=O)O)[C@@H]1CC[C@@]2(C)CCC[C@@](C)(O)[C@@H]2C1 [Ilicic acid] | – | – | – | – | – | – | – | – | IC50 [1, 15]: > 150 µg/mL; MIC [2, 10]: > 250 µg/mL; IC50 [3, 9]: > 150 µg/mL; MIC [4, 11]: > 250 µg/mL; MIC [5, 16]: > 250 µg/mL; IC50 [6, 17]: > 150 µg/mL; MIC [7, 18]: > 250 µg/mL; MIC [8, 14]: > 250 µg/mL
7 | C=C1C(=O)O[C@H]2CC(=C)[C@H]3CC[C@@](C)(O)[C@@H]3C[C@H]12 [Inuviscolide] | – | – | – | – | – | – | – | – | IC50 [1, 15]: > 150 µg/mL; MIC [2, 10]: > 250 µg/mL; IC50 [3, 9]: > 150 µg/mL; MIC [4, 11]: > 250 µg/mL; MIC [5, 16]: > 250 µg/mL; IC50 [6, 17]: 148.8 ± 1.25 µg/mL (≈ 599 µM); MIC [7, 18]: > 250 µg/mL; MIC [8, 14]: > 250 µg/mL
8 | COc1c(O)cc2oc(-c3ccc(O)c(O)c3)cc(=O)c2c1O [Nepetin] | 5.87 ± 1.36 µg/mL (≈ 18.6 µM) | 250 µg/mL (≈ 790 µM) | 103.54 ± 2.82 µg/mL (≈ 327 µM) | >250 µg/mL | >250 µg/mL | 11.33 ± 0.98 µg/mL (≈ 35.8 µM) | >250 µg/mL | >250 µg/mL | –
9 | C[C@@H]1[C@H](O)[C@@H](C)/C=C/C=C/CC/C=C/C=C/C=C/C=C/C(O[C@H]2O[C@H](C)[C@@H](O)[C@H](N)[C@@H]2O)CC2O[C@](O)(CC(O)C(O)CCC(O)CC(O)CC(O)CC(=O)O[C@H]1C)CC(O)C2C(=O)O (stereo partly shown) [Nystatin, reference compound] | – | – | – | – | 25 µg/mL (≈ 27 µM) | – | – | – | –
10 | CC1(C)S[C@@H]2[C@H](NC(=O)Cc3ccccc3)C(=O)N2[C@H]1C(=O)O [Penicillin G, reference compound] | – | – | – | – | – | – | – | – | MIC [2, 10]: > 250 µg/mL; MIC [4, 11]: > 250 µg/mL; MIC [7, 18]: 125 µg/mL (≈ 374 µM); MIC [8, 14]: 125 µg/mL (≈ 374 µM)
11 | CN(C)[C@@H]1C(O)=C(C(N)=O)C(=O)[C@@]2(O)C(O)=C3C(=O)c4c(O)cccc4[C@@](C)(O)[C@H]3C[C@@H]12 [Tetracycline, reference compound] | – | – | – | – | – | – | – | – | MIC [2, 10]: 125 µg/mL (≈ 281 µM); MIC [4, 11]: 2 µg/mL (≈ 4.5 µM); MIC [7, 18]: 150 µg/mL (≈ 338 µM); MIC [8, 14]: 4 µg/mL (≈ 9 µM)
12 | C=C(C(=O)O)[C@@H]1CC[C@@]2(C)CC[C@@H](O)C(=C)C2C1 (stereo partly shown) [Viscic acid] | >150 µg/mL | >250 µg/mL | >150 µg/mL | >250 µg/mL | >250 µg/mL | >150 µg/mL | >250 µg/mL | >250 µg/mL | –
13 | CC[C@H](CC[C@@H](C)[C@H]1CC[C@H]2[C@@H]3CC=C4C[C@@H](O[C@@H]5O[C@H](CO)[C@@H](O)[C@H](O)[C@H]5O)CC[C@]4(C)[C@H]3CC[C@]12C)C(C)C [β-Sitosteryl glucoside] | >150 µg/mL | >250 µg/mL | >150 µg/mL | >250 µg/mL | >250 µg/mL | >150 µg/mL | >250 µg/mL | >250 µg/mL | –
14 | Xepetin | >150 µg/mL | >250 µg/mL | >150 µg/mL | >250 µg/mL | >250 µg/mL | >150 µg/mL | >250 µg/mL | >250 µg/mL | –
